This note sets out measurements from patent publication EP0039265A1, “Medicine containing a biflavanone compound” (SCIENCE UNION ET Cie SOCIETE FRANCAISE DE RECHERCHE MEDICALE, priority 1980, dated 1981).

Series [1] addresses T1, aldose-réductase extraite de cristallins de rats (Rattus norvegicus, UniProt P07943).
T1 construct: l'aldose-réductase extraite de cristallins de rats; from tissue; host or cells: rat lens (CD River rats)
The series is described as follows: Aldose reductase inhibition in vitro (NADPH disappearance). It counts as biochemical. Particulars: rat lens enzyme, pH 7, 25°C, 10 min preincubation, substrate aldéhyde d-glycérique; read-out: inhibition à 50 %. As for the experimental part:
L'activité inhibitrice d'aldose-réductase des composés de la présente invention a été mise en évidence par des essais in vitro sur l'aldose-réductase […] selon la technique […] et J.H. KINOSHITA, J. Biol. Chem. 240 (1965) 877, […] et J.H. KINOSHITA, Biochemical Pharmacolo- gy 5 (1976) 2505-2613. : La biflavanone (I), mise en suspension dans du tampon pH 7, est placée en incubation à 25°C dans un […] bouché contenant l'aldose-réductase […] CD River. Après 10 mn de contact, le substrat ([…] introduit dans la cuve deré- action. La cinétique enzymatique est appréciée par la disparition, du milieu, du co-facteur Ac. Nicotinamide-adénine diphosphorique réduite (NADPH) selon la réaction : [drawing 6] On calcule l'activité enzymatique par détermination de la quantité de NADPH disparue. Les résultats sont exprimés en pourcentage de l'activité enzymatique de la préparation en l'absence de tout inhibiteur. Dans ces conditions on peut déterminer, par exemple, la dose minimale qui inhibe à 50 % l'activité enzymatique.

The subject of series [2] is perméabilité des parois des vaisseaux sanguins. The experiment in a line: Ambrose and De Eds method: time of appearance of Trypan blue at chloroform-irritated skin. It is filed as in vivo, lapin. Particulars: voie orale, suspension, rabbit, maximum of activity about 6 to 7 h after administration. The method, then:
Nous avons utilisé une méthode dérivée de celle décrite par AMBROSE et DE EDS [J. Pharm. Exp. Ther. 90, 359 (1947)] . Un lapin mâle fauve, d'un poids compris entre 2,0 et 2,5 kg, est épilé sur toute la région ventrale à l'aide d'une pâte au sulfure de baryum. Le lendemain l'animal reçoit, en injection intraveineuse 25mg/kg d'une'solution aqueuse de Bleu Trypan à 1 p. 100. Trente minutes après cette injection,on applique pendant 30 secondes un tampon de coton de 1,2 cm de côté, imbibé de chloroforme, en deux ou trois points de la zone êpi- lée, et on note le temps d'apparition de la couleur bleue.
Ce temps doit être sensiblement constant quel que soit le point d'application du tampon et traduit la plus ou moins grande rapidité avec laquelle le colorant quitte le courant sanguin pour imprégner les tissus sous-cutanés.
Le produit à tester est alors aussitôt administré soit par voie intra-péritonéale, soit par voie orale. L'agent irritant est appliqué de nouveau, à des intervalles de quinze minutes, en d'autres points de la zone épilée : on note à chaque fois le temps d'apparition de la coloration bleue.
On opère en principe sur des lots de sept lapins par dose et par produit. Il est à noter que : • - la réponse à l'agent irritant n'étant pas forcément identique selon le point d'application sur l'abdomen, il faut faire varier systématiquement "les points témoins" et les "points traités" d'un lapin à l'autre; • - il faut toujours considérer le temps d'apparition de la coloration bleue et non le temps de son développement complet; • - au bout d'une heure d'expérience, et à chaque heure ensuite, il faut refaire une injection intraveineuse de Bleu Trypan de 1ml de solution aqueuse à 1 p.100; • - chaque lapin est son propre témoin.
Le protocole opératoire précédent a été utilisé et les doses suivantes ont été administrées : 500 mg et 1.000 mg/kg. La biflavanone (I) a été ingérée sous forme de solution aqueuse additionnée de 5 % de gomme adragante. Les résultats sont évalués en pourcentage d'augmentation du temps d'apparition de la couleur bleue au niveau du point d'application par rapport au temps de base mesuré avant traitement, et comparés à des substances de référence administrées dans les mêmes conditions catéchine hydrate, hespéridine, quercétine, rutine. Les résultats sont consignés dans le tableau ci-dessous, le maximum d'activité étant obtenu 6 à 7 heures environ après l'administration du produit.

The subject of a further series is résistance capillaire. The experiment in a line: Parrot method: capillary resistance under vitamin P-deficient diet. It is filed as in vivo. Particulars: injection of 50 mg/kg; cobaye; mean of 10 animals; measured 3 to 48 h after administration. The text has this:
Pour mettre en évidence l'action sur la résistance capillaire, nous avons utilisé […]. PARROT et coll. [C.R. Soc. Biol. 140 750 (1946)]. Elle consiste à étudier les variations de la résistance capillaire chez le cobaye soumis à un […] vitaminique P(C2), mais équilibré en vitamine C. La résistance capillaire est mesurée au niveau de la région lombaire en appliquant sur la peau, préalablement épilée, une ventouse de verre de 5 mm de diamètre. On détermine la valeur de la dépression, exprimée en cm de mercure; qu'il faut réaliser pour […], au bout de 50 secondes environ, 3 […] sur la surface entourée. Cette dépression […] comprise entre 25 et 35 cm de mercure, mais elle chute à 10 cm de Hg chez les animaux soumis au […]é pendant 10 jours. […] L'élévation de la résistance capillaire et sa durée sont […]- quement par la valeur de la surface obtenue en portant sur un système de coordonné[…]. On a constaté […] surface est de 20,8 cm ^2 après injection de 50 mg/kg de biflavanone (I), […] que la même dose de rutine ne donne que 6,42 cm^2.

The test system of another series is perméabilité capillaire. The series is described as follows: Lefebvre technique: appearance of a dye at an intradermal histamine injection site. It counts as in vivo. Particulars: intraperitoneal 100 mg/kg, rat. The method, then:
D'autres tests, utilisés chez le rat, ont confirmé les possibilités de la biflavanone dans la diminution de la perméabilité capillaire par rapport aux produits de référence classiques, et notamment les tests réalisés selon la technique de […]. Soc. Biol. 1, 183 (1962)] qui consiste à observer l'apparition d'un colorant au niveau d'une injection intradermique d'histamine. Il a été constaté que l'infection intrapéritonéale de 100 mg/kg de biflavanone (I) […]'apparition de la coloration de 70 % . La rutine a la même dose ne provoque qu'un retard de 12 %

Series [3] relates to perméabilité des parois des vaisseaux sanguins. The experiment in a line: Beach and Steinetz method: Trypan blue content of chloroform-irritated skin. It counts as in vivo, lapin. The note with it: rabbit. The text has this: La technique d'AMBROSE et DE EDS a été modifiée afin de mesurer la coloration de la tache selon la technique de BEACH et STEINETZ [(J. Pharm. Expl. Therap. (1961) 131, n° 1, p. 400 à 406)]. Des lapins New-Zealand mâles de 2,5 kg reçoivent une injection IP de produit à tester, ou d'eau gommée pour les témoins.
Trente minutes après, sur la peau abdominale.préalablement épilée, un tampon de chloroforme est appliqué trente secondes, afin de créer une irritation locale qui favorise la diffusion du colorant hors des capillaires vers les liquides interstitiels.
Immédiatement après,une solution de Bleu Trypan à 25mg/kg est injectée dans la veine marginale de l'oreille. Une tache bleue apparait à l'endroit irrité. Le lapin est tué par Einjection intracardiaque de pentobarbital, 30 minutes après l'injection du Bleu Trypan.
Les fragments de peau sont prélevés, posés et laissés à digérer 24 heures dans HCI pur. Le Bleu Trypan est dosé selon la technique de BEACH et STEINETZ.
Après la dissolution complète, l'addition de 3 ml de chlorure de Benzalkonium en solution aqueuse à 12,80 % complexe le colorant qui est ensuite repris par 5 ml de chloroforme. Après centrifugation, la phase chloroformique bleue est rapidement soutirée et filtrée, la lecture spectrophotométrique est faite immédiatement afin d'éviter une concentration du colorant par évaporation du chloroforme. Les densités optiques à 620 mn sont traduites en µg de bleu/100 mg de tissu.
Le protocole opératoire précédent a été utilisé et les doses 200 et 400 mg ont été administrées. Les résultats, exprimés en ng de colorant par 100 g de peau fraiche sont donnés dans le tableau suivant : […]

The nature of series [4]: High-dose toxicity, intraperitoneal administration, rat. Particulars: in vivo, ip, rat Sprague Dawley, male, read-out: dose maximale toujours tolérée. As for the experimental part:
Elle a été déterminée sur des groupes homogènes de souris Swiss et NMRI mâles, de race pure, pesant de 19 à 22 g et sur des groupes homogènes de rats Sprague Dawley màles adultes d'un poids moyen de 300 g..
En administration intrapéritonéale, aussi bien chez le rat que chez la souris, la dose maximale toujours tolérée est supérieure à 3 et 4.000 mg/kg.

Setting [5] is: I.P. 200 mg/kg, eau gommée control 4,62 ± 1,4.
[6] abbreviates: I.P. 400 mg/kg, eau gommée control 5,01 ± 2,3.

As to `O=C(O)CN1C(=O)c2cccc3cccc(c23)C1=O` [Alrestatine, alrestatine], in series [1], the IC50 came out at 1000 nM.
For the compound `O=C1c2c(O)cc(O)c(C3C(=O)c4c(O)cc(O)cc4OC3c3ccc(O)c(O)c3)c2OC(c2ccc(O)c(O)c2)C1O` (stereo not drawn) [Biflavanone (I), manniflavone], the “Augmentation % du temps d'apparition par rapport au temps témoin” value in series [2] (1.000 mg/kg) is given as 125%; in series [2] (500 mg/kg) it was 50%. Also, the “surface (élévation de la résistance capillaire et sa durée, planimétrie)” value in the series on résistance capillaire is given as 20,8 cm^2. The “retard de l'apparition de la coloration” value with perméabilité capillaire amounted to 70%. Besides, the “CON[…] BLEU TRYPAN” value in series [3] (setting [5]) was 4 ± 2,3 µg/100 g DE PEAU; in series [3] (setting [6]) it was 3,1 ± 2,3 µg/100 g DE PEAU. Further, the IC50 in series [1] lay within 100 to 250 nM. In series [4], the MTD is > 3 mg/kg.
`Oc1cc(O)c2c(c1)O[C@H](c1ccc(O)c(O)c1)[C@@H](O)C2` [Catéchine hydrate]: the “Augmentation % du temps d'apparition par rapport au temps témoin” value in series [2] (1.000 mg/kg) stood at 50%; in series [2] (500 mg/kg), 38%.
On to `COc1ccc(-c2cc(=O)c3c(O)cc(O[C@@H]4O[C@H](CO[C@@H]5O[C@@H](C)[C@H](O)[C@@H](O)[C@H]5O)[C@@H](O)[C@H](O)[C@H]4O)cc3o2)cc1O` [Diosmine, diosmine], for which the results for the “CONCENTRATION DU BLEU TRYPAN” value in series [3] (setting [5]) and in series [3] (setting [6]) were 2,66 ± 2 µg/100 g DE PEAU and 2,50 ±1,6 µg/100 g DE PEAU, respectively. Moreover, in series [1], the IC50 lay within 50000 to 100000 nM.
On to `COc1ccc([C@@H]2CC(=O)c3c(O)cc(O[C@@H]4O[C@H](CO[C@@H]5O[C@@H](C)[C@H](O)[C@@H](O)[C@H]5O)[C@@H](O)[C@H](O)[C@H]4O)cc3O2)cc1O` [Hespé-ridine, hespéridine], for which the “Augmentation % du temps d'apparition par rapport au temps témoin” value in series [2] (1.000 mg/kg) and in series [2] (500 mg/kg) was 0% throughout.
Regarding `O=c1c(O)c(-c2ccc(O)c(O)c2)oc2cc(O)cc(O)c12` [Quercé-tine, quercétine], the “Augmentation % du temps d'apparition par rapport au temps témoin” value in series [2] (1.000 mg/kg) and in series [2] (500 mg/kg) was 0% each time.
`C[C@@H]1O[C@@H](OC[C@H]2O[C@@H](Oc3c(-c4ccc(O)c(O)c4)oc4cc(O)cc(O)c4c3=O)[C@H](O)[C@@H](O)[C@@H]2O)[C@H](O)[C@H](O)[C@H]1O` [Rutine, rutine]: the results for the “Augmentation % du temps d'apparition par rapport au temps témoin” value in series [2] (1.000 mg/kg) and in series [2] (500 mg/kg) were 77% and 27%, respectively. The “surface (élévation de la résistance capillaire et sa durée, planimétrie)” value in the series with résistance capillaire is 6,42 cm^2. The “retard de l'apparition de la coloration” value in the series with perméabilité capillaire is 12%. Also, the “CONCENTRATION DU BLEU TRYPAN” value is recorded as 3,6 ± 1,8 µg/100 g DE PEAU in series [3] (setting [5]) and 3,2 ± 2 µg/100 g DE PEAU in series [3] (setting [6]).
